Where a name gives a salt, the structure may show the parent alone. Marks after values point to notes of the source that are not given here.
Assays:
rabbit cortex = test: Quantitative EEG, rabbit cortex, intravenous administration; type: in vivo, rabbits; conditions: for group percent change in electrical energy from pre-drug control, Δ band / mean change ± S.E. in electrical energy from pre-drug control, Δ band: Δ = 0.5-3.5 Hz; for group percent change in electrical energy from pre-drug control, α band / mean change ± S.E. in electrical energy from pre-drug control, α band: α= 7-13 Hz; for group percent change in electrical energy from pre-drug control, β band / mean change ± S.E. in electrical energy from pre-drug control, β band: β= 13-25 Hz; for group percent change in electrical energy from pre-drug control, γ band / mean change ± S.E. in electrical energy from pre-drug control, γ band: γ= 25-40 Hz; for group percent change in electrical energy from pre-drug control, θ band / mean change ± S.E. in electrical energy from pre-drug control, θ band: θ= 3.5-7.0 Hz
Outline: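 Restrained rabbits with cortical leads had EEG split into Δ, ϑ, α, β and γ bands and integrated over 1 h from the moment of i.v. injection, in saline, dosed as free base. Counts were compared with each animal's own pretreatment control by paired t-test (p≦0.05). Doses were reduced geometrically to a no-effect level.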

[1] = test system: fronto-occipital cortex of the cat; test: Quantitative EEG, fronto-occipital cat cortex, subcutaneous administration; type: in vivo, cats; conditions: for group percent change in electrical energy from pre-drug control, Δ band / mean change ± S.E. in electrical energy from pre-drug control, Δ band / group percent change in electrical energy from pre-drug control, α band / mean change ± S.E. in electrical energy from pre-drug control, α band / group percent change in electrical energy from pre-drug control, β band / mean change ± S.E. in electrical energy from pre-drug control, β band / group percent change in electrical energy from pre-drug control, γ band / mean change ± S.E. in electrical energy from pre-drug control, γ band / group percent change in electrical energy from pre-drug control, θ band / mean change ± S.E. in electrical energy from pre-drug control, θ band: fronto-occipital cat cortex; for group percent change in electrical energy from pre-drug control, Δ band / mean change ± S.E. in electrical energy from pre-drug control, Δ band: Δ = 0.5-3.5 Hz; for group percent change in electrical energy from pre-drug control, α band / mean change ± S.E. in electrical energy from pre-drug control, α band: α= 7-13 Hz; for group percent change in electrical energy from pre-drug control, β band / mean change ± S.E. in electrical energy from pre-drug control, β band: β= 13-25 Hz; for group percent change in electrical energy from pre-drug control, γ band / mean change ± S.E. in electrical energy from pre-drug control, γ band: γ= 25-40 Hz; for group percent change in electrical energy from pre-drug control, θ band / mean change ± S.E. in electrical energy from pre-drug control, θ band: θ= 3.5-7.0 Hz
Outline: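 Adult female mongrel cats (n=6 per group) with implanted electrodes were recorded while held in restraining bags, with EEG filtered into Δ, ϑ, α, β and γ bands and integrated as energy counts. Drugs were given subcutaneously in saline, with doses calculated as free base, and recording started 30 min post-injection. Changes from each animal's pre-treatment control were tested by paired Student t-test (P≦0.05).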

[2] = rabbit cortex, 0.125 mg/kg free base i.v.
[3] = rabbit cortex, 0.25 mg/kg free base i.v.

`CSc1ccc2c(c1)N(CCC1CCCCN1C)c1ccccc1S2` (centres unmarked) [Thioridazine HCl, thioridazine] was tested, and the minimal effective dose (rabbit cortex; Oryctolagus cuniculus, iv, rabbit cortex EEG, dose of free base, read-out: the minimum dose required to produce the EEG profile characteristic of that particular drug) was 0.25 mg/kg, the “relative potency by comparing minimal doses required to elicit EEG profiles” value (rabbit cortex; rabbit cortex EEG, i.v.) was “approximately twice as potent as buspirone” and the the no-effect dose (rabbit cortex; rabbit cortex EEG, dose of free base) was 0.125† mg/kg, i.v. The EEG profile (rabbit cortex; rabbit cortex, i.v.) was “completely different from that produced by stimulant drugs”, the “group percent change in electrical energy from pre-drug control, Δ band” value (“group percent change … Δ band” below) (rabbit cortex; [2]) was “+3%” and the “mean change ± S.E. in electrical energy from pre-drug control, Δ band” value (shortened to “mean change ± S.E. in electrical energy … Δ band”) (rabbit cortex; [2]) was “+11 ± 23 instrument counts”. For the same compound, the “group percent change … Δ band” value (rabbit cortex; [3]) was “+69%”, the “mean change ± S.E. in electrical energy … Δ band” value (rabbit cortex; [3]) was “+143 ± 11 instrument counts” and the “group percent change in electrical energy from pre-drug control, α band” value (“group percent change … α band” below) (rabbit cortex; [2]) was 0%. The “mean change ± S.E. in electrical energy from pre-drug control, α band” value (shortened to “mean change ± S.E. in electrical energy … α band”) (rabbit cortex; [2]) was 0 ± 6 instrument counts, the “group percent change … α band” value (rabbit cortex; [3]) was “+34%” and the “mean change ± S.E. in electrical energy … α band” value (rabbit cortex; [3]) was “+54 ± 2 instrument counts”. The “group percent change in electrical energy from pre-drug control, β band” value (“group percent change … β band” below) (rabbit cortex; [2]) was “+3%”, the “mean change ± S.E. in electrical energy from pre-drug control, β band” value (shortened to “mean change ± S.E. in electrical energy … β band”) (rabbit cortex; [2]) was “+5 ± 4 instrument counts” and the “group percent change … β band” value (rabbit cortex; [3]) was “+35%”. For the same compound, the “mean change ± S.E. in electrical energy … β band” value (rabbit cortex; [3]) was “+39 ± 4 instrument counts”, the “group percent change in electrical energy from pre-drug control, γ band” value (“group percent change … γ band” below) (rabbit cortex; [2]) was “+1%” and the “mean change ± S.E. in electrical energy from pre-drug control, γ band” value (shortened to “mean change ± S.E. in electrical energy … γ band”) (rabbit cortex; [2]) was “+1 ± 1 instrument counts”. The “group percent change … γ band” value (rabbit cortex; [3]) was “+5%”, the “mean change ± S.E. in electrical energy … γ band” value (rabbit cortex; [3]) was “+5 ± 1 instrument counts” and the “group percent change in electrical energy from pre-drug control, θ band” value (“group percent change … θ band” below) (rabbit cortex; [2]) was -5%. For the same compound, the “mean change ± S.E. in electrical energy from pre-drug control, θ band” value (shortened to “mean change ± S.E. in electrical energy … θ band”) (rabbit cortex; [2]) was -13 ± 8 instrument counts, the “group percent change … θ band” value (rabbit cortex; [3]) was “+21%” and the “mean change ± S.E. in electrical energy … θ band” value (rabbit cortex; [3]) was “+43 ± 4 instrument counts”. For the same compound, the minimal effective dose ([1]; Felis catus, sc, fronto-occipital cat cortex EEG, dose of free base, read-out: the minimum dose required to produce the EEG profile characteristic of that particular drug) was 1 mg/kg, the the no-effect dose ([1]; fronto-occipital cat cortex EEG, dose of free base) was 0.5† mg/kg, s.c and the “group percent change … Δ band” value ([1]; 0.5 mg/kg free base s.c.) was “+5%”. For the same compound, the “mean change ± S.E. in electrical energy … Δ band” value ([1]; 0.5 mg/kg free base s.c.) was “+11 ± 21 instrument counts”, the “group percent change … Δ band” value ([1]; 1.0 mg/kg free base s.c.) was “+19%” and the “mean change ± S.E. in electrical energy … Δ band” value ([1]; 1.0 mg/kg free base s.c.) was “+38 ± 11 instrument counts”. For the same compound, the “group percent change … Δ band” value ([1]; 8.0 mg/kg free base s.c.) was “+28%”, the “mean change ± S.E. in electrical energy … Δ band” value ([1]; 8.0 mg/kg free base s.c.) was “+54 ± 8 instrument counts” and the “group percent change … α band” value ([1]; 0.5 mg/kg free base s.c.) was 0%. For the same compound, the “mean change ± S.E. in electrical energy … α band” value ([1]; 0.5 mg/kg free base s.c.) was 0 ± 7 instrument counts, the “group percent change … α band” value ([1]; 1.0 mg/kg free base s.c.) was “+18%” and the “mean change ± S.E. in electrical energy … α band” value ([1]; 1.0 mg/kg free base s.c.) was “+20 ± 5 instrument counts”. The “group percent change … α band” value ([1]; 8.0 mg/kg free base s.c.) was “+26%”, the “mean change ± S.E. in electrical energy … α band” value ([1]; 8.0 mg/kg free base s.c.) was “+25 ± 6 instrument counts” and the “group percent change … β band” value ([1]; 0.5 mg/kg free base s.c.) was -3%. For the same compound, the “mean change ± S.E. in electrical energy … β band” value ([1]; 0.5 mg/kg free base s.c.) was -3 ± 3 instrument counts, the “group percent change … β band” value ([1]; 1.0 mg/kg free base s.c.) was “+3%” and the “mean change ± S.E. in electrical energy … β band” value ([1]; 1.0 mg/kg free base s.c.) was “+3 ± 4 instrument counts”. For the same compound, the “group percent change … β band” value ([1]; 8.0 mg/kg free base s.c.) was -2%, the “mean change ± S.E. in electrical energy … β band” value ([1]; 8.0 mg/kg free base s.c.) was -3 ± 4 instrument counts and the “group percent change … γ band” value ([1]; 0.5 mg/kg free base s.c.) was -5%. For the same compound, the “mean change ± S.E. in electrical energy … γ band” value ([1]; 0.5 mg/kg free base s.c.) was -3 ± 3 instrument counts, the “group percent change … γ band” value ([1]; 1.0 mg/kg free base s.c.) was -11% and the “mean change ± S.E. in electrical energy … γ band” value ([1]; 1.0 mg/kg free base s.c.) was -9 ± 4 instrument counts. For the same compound, the “group percent change … γ band” value ([1]; 8.0 mg/kg free base s.c.) was -15%, the “mean change ± S.E. in electrical energy … γ band” value ([1]; 8.0 mg/kg free base s.c.) was -12 ± 3 instrument counts and the “group percent change … θ band” value ([1]; 0.5 mg/kg free base s.c.) was -1%. For the same compound, the “mean change ± S.E. in electrical energy … θ band” value ([1]; 0.5 mg/kg free base s.c.) was -2 ± 8 instrument counts, the “group percent change … θ band” value ([1]; 1.0 mg/kg free base s.c.) was “+24%” and the “mean change ± S.E. in electrical energy … θ band” value ([1]; 1.0 mg/kg free base s.c.) was “+29 ± 5 instrument counts”. The “group percent change … θ band” value ([1]; 8.0 mg/kg free base s.c.) was “+30%” and the “mean change ± S.E. in electrical energy … θ band” value ([1]; 8.0 mg/kg free base s.c.) was “+40 ± 6 instrument counts”.
